From patent US4820834A, “Benzodiazepine analogs” (priority 1987, dated 1989)
Read-outs that look alike come from different tables or passages of the source.

Columns and labels:
[1] = target: T1, CCK receptor (brain, cerebral cortex) (Cavia porcellus, UniProt H0VZC5); assay: biochemical; type: binding, Male Hartley guinea pigs; conditions: guinea pig cerebral cortex, ^125 I-CCK-33, 25° C., 2 hours
T1 construct: Cerebral cortex was dissected and used as a receptor source; from tissue; host or cells: guinea pig cerebral cortex membranes (male Hartley)
T1 sequence (H0VZC5 1-426): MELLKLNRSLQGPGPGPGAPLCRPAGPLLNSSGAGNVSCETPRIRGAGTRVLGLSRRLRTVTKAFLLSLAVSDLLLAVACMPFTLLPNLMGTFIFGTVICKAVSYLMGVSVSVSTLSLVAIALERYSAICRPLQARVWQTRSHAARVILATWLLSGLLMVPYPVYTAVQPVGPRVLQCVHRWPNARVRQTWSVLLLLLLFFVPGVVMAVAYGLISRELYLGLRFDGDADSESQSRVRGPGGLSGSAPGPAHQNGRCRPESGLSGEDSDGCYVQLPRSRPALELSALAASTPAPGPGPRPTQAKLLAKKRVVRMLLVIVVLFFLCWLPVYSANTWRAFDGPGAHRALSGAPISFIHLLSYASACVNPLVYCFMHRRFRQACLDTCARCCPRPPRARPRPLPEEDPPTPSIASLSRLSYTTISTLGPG
Outline: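 Guinea pig cerebral cortex homogenate as receptor source, with radiolabeled CCK-33 in HEPES buffer containing MgCl2, bacitracin, EGTA and 0.4% BSA. Incubation 2 h at 25°C; bound ligand pelleted by centrifugation and gamma-counted.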

CCK receptor (pancreas) = target: T2, CCK receptor (pancreas) (Rattus norvegicus, UniProt P30551); assay: CCK Receptor Binding (Pancreas): inhibition of ^125 I-CCK-33 binding; set-up: species or system Male Sprague-Dawley rats; conditions: rat pancreas membranes, ^125 I-CCK-33, 37° C., 30 minutes
T2 construct: The whole pancreas was dissected free of fat tissue and was homogenized; from tissue; host or cells: rat pancreas membranes (Sprague-Dawley)
T2 sequence (P30551 1-444): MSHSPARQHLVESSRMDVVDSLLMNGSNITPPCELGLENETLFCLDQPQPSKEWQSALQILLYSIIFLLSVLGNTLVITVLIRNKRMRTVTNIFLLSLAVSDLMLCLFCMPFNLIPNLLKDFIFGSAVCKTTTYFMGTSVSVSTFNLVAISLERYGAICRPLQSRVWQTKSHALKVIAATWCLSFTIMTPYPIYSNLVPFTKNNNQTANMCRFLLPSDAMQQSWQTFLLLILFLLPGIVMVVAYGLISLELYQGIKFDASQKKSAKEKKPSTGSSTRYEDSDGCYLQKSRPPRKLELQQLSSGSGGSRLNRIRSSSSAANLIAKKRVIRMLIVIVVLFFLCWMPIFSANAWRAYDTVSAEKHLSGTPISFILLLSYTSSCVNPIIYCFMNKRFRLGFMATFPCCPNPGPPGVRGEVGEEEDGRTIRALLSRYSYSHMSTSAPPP
Procedure: 1. CCK Receptor Binding (Pancreas)
CCK-33 was radiolabeled with ^125 I-Bolton Hunter reagent (2000 Ci/mmole) as described by Sankara et al. (J. Biol. Chem. 254: 9349-9351, 1979). Receptor binding was performed according to Innis and Snyder (Proc. Natl. Acad. Sci. 77: 6917-6921, 1980) with the minor modification of adding the additional protease inhibitors, phenylmethane sulfonyl fluoride and o-phenanthroline.
Male Sprague-Dawley rats (200-350 g) were sacrificed by decapitation. The whole pancreas was dissected free of fat tissue and was homogenized in 20 volumes of ice-cold 50 mM, Tris HCl (pH 7.7 at 25° C.) with a Brinkmann Polytron PT 10. The homogenates were centrifuged at 48,000 g for 10 min. Pellets were resuspended in Tris Buffer, centrifuged as above and resuspended in 200 volumes of binding assay buffer (50 mM Tris HCl, pH 7.7 at 25° C., 5 mM dithiothrietol, 0.1 mM bacitracin, 1.2 mM phenylmethane sulfonyl fluoride and 0.5 mM o-phenanthroline). […] All assays were run in duplicate or triplicate. The reaction mixtures were incubated at 37° C. for 30 minutes and centrifuged in a Beckman Microfuge (4 minutes) immediately after adding 1 ml of ice-cold incubation buffer. The supernatant was aspirated and discarded, pellets were counted with a Beckman gamma 5000. For Scatchard analysis (Ann. N.Y. Acad. Sci. 51: 660, 1949), ^125 I-CCK-33 was progressively diluted with increasing concentrations of CCK-33.

[2] = target: T3, Gastrin receptor (gastric glands) (Cavia porcellus, UniProt H0VZC5); assay: Gastrin Receptor Binding in Guinea Pig Gastric Glands; set-up: species or system guinea pig (male Hartley); conditions: 25° C., 30 minutes
T3 construct: The washed guinea pig gastric glands prepared as above were resuspended; from tissue; host or cells: guinea pig gastric mucosal glands (male Hartley)
T3 sequence (H0VZC5 1-426): T1 sequence (H0VZC5 1-426)

[3] = read-out: IC50 ^125 I-CCK Brain
[4] = read-out: IC50 ^125 I-CCK Pancreas
[5] = ^125 I-gastrin, read-out: IC50 ^125 I-Gastrin Gastric Glands
[6] = IC50 ^125 I-Gastrin Gastric Glands

| Molecule | IC50 [1, 3] [µM] | IC50 (CCK receptor (pancreas); [4]) [µM] | IC50 [2, 5] [µM] | IC50 ([1]; IC50 ^125 I-CCK Brain) [µM] | IC50 (CCK receptor (pancreas); IC50 ^125 I-CCK Pancreas) [µM] | IC50 [2, 6] [µM] |
| --- | --- | --- | --- | --- | --- | --- |
| 1-(2-Cyanoethyl)-1,3-dihydro-5-(2-fluorophenyl)-3(R)-(3'-indolyl)methyl-2H- 1,4-benzodiazepin-2-one (A, 85%) and 1-(2-cyanoethyl)-1,3-dihydro-5-(2-fluorophenyl)-3(R)-[1'-(2-cyanoethyl)-3'-indolyl]-methyl-2H-1,4-benzodiazpin-2-one (B, 15%) [Example 102] | 30 | 0.7 | 12.8 | – | – | – |
| CC(C)(C)OC(=O)N[C@@H](Cc1c[nH]c2ccccc12)C(=O)NC1N=C(c2ccccc2)c2ccccc2NC1=O (mixture of isomers) [Example 77, 3(RS)-(Boc-L-tryptophanyl)amino-1,3-dihydro-5-phenyl-2H-1,4-benzodiazepin-2-one] | – | – | – | 20 | 6 | 250 |
| CC(C)(C)OC(=O)N[C@H](Cc1c[nH]c2ccccc12)C(=O)NC1N=C(c2ccccc2)c2ccccc2NC1=O (mixture of isomers) [Example 96, 3(RS)-(BOC-D-tryptophanyl)amino-1,3-dihydro-5-phenyl-2H-1,4-benzodiazepin-2-one] | – | – | – | > 100 | 17 | 500 |
| CN1C(=O)C(C(O)c2c[nH]c3ccccc23)N=C(c2ccccc2)c2ccccc21 (racemic) [Example 47, 1,3-Dihydro-3(RS)-[1-hydroxy-1-(3'-indolyl)]methyl-1-methyl-5-phenyl-2H-1,4-benzodiazepin-2-one] | 40 | – | 24 | – | 24 | – |
| CN1C(=O)C(C(=O)c2ccsc2)N=C(c2ccccc2)c2ccccc21 (racemic) [Example 48, 1,3-Dihydro-1-methyl-5-phenyl-3-(RS)-(3-thienoyl)-2H-1,4-benzodiazepin-2-one] | 33 | – | 8.4 | – | 54 | – |
| CN1C(=O)C(C(O)c2ccsc2)N=C(c2ccccc2)c2ccccc21 (racemic) [Example 49, 1,3-Dihydro-3-(RS)-[1-hydroxy-1-(3-thienyl)]methyl-1-methyl-5-phenyl-2H-1,4-benzodiazepin-2-one] | 100 | – | 34 | – | > 100 | – |
| CN1C(=O)C(C(O)c2cn(C)c3ccccc23)N=C(c2ccccc2)c2ccccc21 (racemic) [Example 50a, 1,3-Dihydro-3(RS)-[1-hydroxy-1-[3-(1-methylindolyl)]]-methyl-1-methyl-5-phenyl-2H-1,4-benzodiazepin-2-one] | 2.6 | – | 1.2 | – | 15 | – |
| CN1C(=O)C(C(O)c2cn(C)c3ccccc23)N=C(c2ccccc2)c2ccccc21 (racemic) [Example 50b, 1,3-Dihydro-3(RS)-[1-hydroxy-1-[3-(1-methylindolyl)]]-methyl-1-methyl-5-phenyl-2H-1,4-benzodiazepin-2-one] | 40 | – | 61 | – | 100 | – |
| CN1C(=O)C(C(O)c2ccccc2)N=C(c2ccccc2)c2ccccc21 (racemic) [Example 51, 1,3-Dihydro-3(RS)-(1-hydroxy-1-phenyl)methyl-1-methyl-5-phenyl-2H-1,4-benzodiazepin-2-one] | 32 | – | 25 | – | > 100 | – |
| CN1C(=O)C(C(O)c2cccs2)N=C(c2ccccc2)c2ccccc21 (racemic) [Example 52, 1,3-Dihydro-3(RS)-[1-hydroxy-1-(2-thienyl)]methyl-1-methyl-5-phenyl-2H-1,4-benzodiazepin-2-one] | 33 | – | 26 | – | > 100 | – |
| CN1C(=O)C(O)(C(=O)c2ccsc2)N=C(c2ccccc2)c2ccccc21 (racemic) [Example 53a, 1,3-Dihydro-3-(RS)-hydroxy-1-methyl-5-phenyl-3-(3'-thienoyl)-2H-1,4-benzodiazepin-2-one] | 4.2 | – | 0.85 | – | 100 | – |
| CN1C(=O)C(C(=O)c2ccsc2)=NC(O)(c2ccccc2)c2ccccc21 (racemic) [Example 53b, 1,5-Dihydro-5-(RS)-hydroxy-1-methyl-5-phenyl-3-(3'-thienoyl)-2H-1,4-benzodiazepin-2-one] | 100 | 19 | > 100 | – | – | – |
| O=C1Nc2ccccc2C(c2ccccc2)=NC1Cc1c[nH]c2ccc(Br)cc12 (racemic) [Example 57, 3(RS)-[3'-(5'-Bromoindolyl)methyl]-1,3-dihydro-5-phenyl-2H-1,4-benzodiazepin-2-one] | – | – | – | 100 | 2.9 | 700 |
| O=C(c1ccccc1F)c1ccccc1NC(=O)C(CN1C(=O)c2ccccc2C1=O)N1C(=O)c2ccccc2C1=O (racemic) [Example 62, 2-N-[2(RS)-3-diphthalylaminopropanoyl]amino-2'-fluorobenzophenone] | > 100 | > 100 | > 1000 | – | – | – |
| NCC1N=C(c2ccccc2F)c2ccccc2NC1=O (racemic) [Example 63, 1,3-Dihydro-5-(2'-fluorophenyl)-3(RS)-aminomethyl-2H-1,4-benzodiazepin-2-on] | – | – | – | > 100 | > 100 | > 1000 |
| O=C1Nc2ccccc2C(c2ccccc2F)=NC1CNc1cncc(Cl)n1 (racemic) [Example 70, 1,3-Dihydro-5-(2'-fluorophenyl)-3-(RS)-(6'-chloropyrazin-2yl)aminomethyl-2H-4-benzodiazepin-2-one] | 100 | – | 200 | – | 15 | – |
| CCCCCc1ccc(C(=O)N[C@H]2N=C(c3ccccc3)c3ccccc3N(C)C2=O)cc1 [Example 201] | – | 0.25 | > 100 | – | – | – |
| CCCCCc1ccc(C(=O)N[C@@H]2N=C(c3ccccc3)c3ccccc3N(C)C2=O)cc1 [Example 206, (R)-N-(2,3-Dihydro-1-methyl-2-oxo-5-phenyl-1H-1,4-benzodiazepin-3-yl)-4-pentylbenzamide] | – | 12 | > 100 | – | – | – |
| CN1C(=O)C(NC(=O)c2ccc(C(F)(F)F)cc2)N=C(c2ccccc2F)c2ccccc21 (stereo not shown) [Example 218, N-(5-(2-Fluorophenyl)-2,3-dihydro-1-methyl-2-oxo-1H-1,4-benzodiazepin-3-yl)-4-(trifluoromethyl)-benzamide] | – | – | 1.8 | – | 0.0026 | – |
| Cc1cccc(NC(=O)NC2N=C(c3ccccc3)c3ccccc3N(C)C2=O)c1 (stereo not shown) [Example 263, N-(2,3-Dihydro-1-methyl-2-oxo-5-phenyl-1H-1,4-benzodiazepin-3-yl)-N'-(3-methylphenyl)-urea] | – | 0.0081 | 0.0031 | – | – | – |
| Cc1cccc(NC(=O)N[C@@H]2N=C(c3ccccc3)c3ccccc3N(C)C2=O)c1 [Example 281, (R)-N-(2,3-Dihydro-1-methyl-2-oxo-5-phenyl-1H-1,4-benzodiazepin-3-yl)-N'-(3-methylphenyl)-urea] | – | – | 0.00066 | – | 1.4 | – |
